In ChEMBL document CHEMBL4368924, “Synthesis and biological evaluation of nitroxide labeled pyrimidines as Aurora kinase inhibitors” (Bioorg Med Chem Lett, 2019):
Activity calls are given as the source filed them. The calls are words filed in the database; no cut-off is given here.

Tests used:
[1] = biological target: T1, Aurora kinase A (Homo sapiens) (UniProt O14965); experiment: Inhibition of aurora A phosphorylation at Thr288 residues in human HeLa cells after 24 hrs by immunofluorescence assay; assay type: cell-based
T1 sequence (whole entry): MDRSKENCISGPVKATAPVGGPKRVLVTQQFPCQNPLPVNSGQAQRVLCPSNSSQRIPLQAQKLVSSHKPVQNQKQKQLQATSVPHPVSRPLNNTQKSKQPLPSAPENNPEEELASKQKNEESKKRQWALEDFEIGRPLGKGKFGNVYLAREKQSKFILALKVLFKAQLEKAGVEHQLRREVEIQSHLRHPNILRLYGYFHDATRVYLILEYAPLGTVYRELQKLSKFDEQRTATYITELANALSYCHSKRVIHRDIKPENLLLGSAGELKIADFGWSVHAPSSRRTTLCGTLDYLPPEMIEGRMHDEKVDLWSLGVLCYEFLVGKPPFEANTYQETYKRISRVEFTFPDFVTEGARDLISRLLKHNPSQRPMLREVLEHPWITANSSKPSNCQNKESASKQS

Aurora kinase B [2] = biological target: T2, Aurora kinase B (Homo sapiens, UniProt Q96GD4); experiment: Inhibition of aurora B phosphorylation at Thr232 residues in human HeLa cells after 24 hrs by immunofluorescence assay; assay type: cell-based
LoVo = experiment: Antiproliferative activity against human LoVo cells after 48 hrs by MTT assay; assay type: functional, cell-based
Aurora kinase B [3] = biological target: T2, Aurora kinase B; experiment: Inhibition of aurora B (unknown origin) using Kemptide as substrate after 60 mins by ADP-Glo luminescence assay
Aurora kinase B [4] = biological target: T2, Aurora kinase B; experiment: Inhibition of aurora B in human HeLa cells assessed as decrease in HisH3 phosphorylation at ser10 residues after 24 hrs by Western blot analysis; assay type: cell-based
A549 = experiment: Antiproliferative activity against human A549 cells after 48 hrs by MTT assay; assay type: functional, cell-based
Aurora kinase B [5] = biological target: T2, Aurora kinase B; experiment: Inhibition of aurora B (unknown origin) using Kemptide as substrate at 1 uM after 60 mins by ADP-Glo luminescence assay relative to control
Aurora kinase A = biological target: T3, Aurora kinase A (Homo sapiens, UniProt O14965); experiment: Inhibition of aurora A (unknown origin) using Kemptide as substrate after 60 mins by ADP-Glo luminescence assay
T3 sequence (O14965 whole entry): T1 sequence (whole entry)

HepG2 = experiment: Antiproliferative activity against human HepG2 cells after 48 hrs by MTT assay; assay type: functional, cell-based
HeLa [6] = experiment: Antiproliferative activity against human HeLa cells after 48 hrs by MTT assay; assay type: functional, cell-based
[7] = biological target: T1, Aurora kinase A (Homo sapiens); experiment: Inhibition of aurora A (unknown origin) using Kemptide as substrate at 1 uM after 60 mins by ADP-Glo luminescence assay relative to control
[8] = biological target: T1, Aurora kinase A (Homo sapiens); experiment: Inhibition of aurora A in human HeLa cells assessed as decrease in TPX2 level after 24 hrs by Western blot analysis; assay type: cell-based
[9] = biological target: T1, Aurora kinase A (Homo sapiens); experiment: Inhibition of aurora A in human HeLa cells assessed as decrease in Eg5 level after 24 hrs by Western blot analysis; assay type: cell-based
[10] = biological target: Vascular endothelial growth factor receptor 2 (Homo sapiens) (UniProt P35968); experiment: Inhibition of VEGFR2 (unknown origin) using Kemptide as substrate at 1 uM after 60 mins by ADP-Glo luminescence assay relative to control
[11] = biological target: Activin receptor type-1-like (Homo sapiens) (UniProt P37023); experiment: Inhibition of ALK1 (unknown origin) using Kemptide as substrate at 1 uM after 60 mins by ADP-Glo luminescence assay relative to control
[12] = biological target: T1, Aurora kinase A (Homo sapiens); experiment: Inhibition of aurora A in human HeLa cells assessed as decrease in Bora level after 24 hrs by Western blot analysis; assay type: cell-based
Homo sapiens = species on record: Homo sapiens; experiment: Inhibition of PI3K (unknown origin) using Kemptide as substrate at 1 uM after 60 mins by ADP-Glo luminescence assay relative to control
HeLa [13] = experiment: Induction of morphological changes in human HeLa cells assessed as disrupting mitotic spindle formation at 5 uM after 24 hrs by DAPI-staining based immunofluorescence assay; assay type: functional, cell-based
[14] = biological target: RAC-alpha serine/threonine-protein kinase (Homo sapiens) (UniProt P31749); experiment: Inhibition of AKT (unknown origin) using Kemptide as substrate at 1 uM after 60 mins by ADP-Glo luminescence assay relative to control
Sequence of RAC-alpha serine/threonine-protein kinase (Homo sapiens) (P31749 whole entry): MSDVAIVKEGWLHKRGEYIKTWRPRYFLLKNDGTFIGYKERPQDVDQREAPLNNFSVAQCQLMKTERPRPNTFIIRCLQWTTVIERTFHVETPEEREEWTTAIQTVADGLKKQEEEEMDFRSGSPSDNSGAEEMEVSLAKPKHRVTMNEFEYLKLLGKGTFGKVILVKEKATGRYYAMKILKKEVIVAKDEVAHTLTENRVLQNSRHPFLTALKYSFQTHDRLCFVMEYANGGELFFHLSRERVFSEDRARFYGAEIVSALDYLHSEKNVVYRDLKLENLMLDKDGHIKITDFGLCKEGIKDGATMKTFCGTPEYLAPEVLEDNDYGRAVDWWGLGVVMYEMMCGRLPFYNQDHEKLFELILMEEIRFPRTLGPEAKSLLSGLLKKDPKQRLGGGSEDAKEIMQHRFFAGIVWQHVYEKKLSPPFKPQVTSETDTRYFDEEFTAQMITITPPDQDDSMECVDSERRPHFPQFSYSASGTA

T2 sequence (Q96GD4 whole entry): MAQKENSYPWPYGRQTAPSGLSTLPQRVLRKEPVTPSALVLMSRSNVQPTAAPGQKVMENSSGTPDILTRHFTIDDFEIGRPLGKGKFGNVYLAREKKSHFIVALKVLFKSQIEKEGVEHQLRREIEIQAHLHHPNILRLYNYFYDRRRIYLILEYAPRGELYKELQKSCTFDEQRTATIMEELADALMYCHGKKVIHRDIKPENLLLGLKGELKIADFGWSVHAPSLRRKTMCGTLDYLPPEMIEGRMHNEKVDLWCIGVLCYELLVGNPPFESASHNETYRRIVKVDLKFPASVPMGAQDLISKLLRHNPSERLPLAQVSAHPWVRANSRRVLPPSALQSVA
Sequence of Vascular endothelial growth factor receptor 2 (Homo sapiens) (P35968 whole entry): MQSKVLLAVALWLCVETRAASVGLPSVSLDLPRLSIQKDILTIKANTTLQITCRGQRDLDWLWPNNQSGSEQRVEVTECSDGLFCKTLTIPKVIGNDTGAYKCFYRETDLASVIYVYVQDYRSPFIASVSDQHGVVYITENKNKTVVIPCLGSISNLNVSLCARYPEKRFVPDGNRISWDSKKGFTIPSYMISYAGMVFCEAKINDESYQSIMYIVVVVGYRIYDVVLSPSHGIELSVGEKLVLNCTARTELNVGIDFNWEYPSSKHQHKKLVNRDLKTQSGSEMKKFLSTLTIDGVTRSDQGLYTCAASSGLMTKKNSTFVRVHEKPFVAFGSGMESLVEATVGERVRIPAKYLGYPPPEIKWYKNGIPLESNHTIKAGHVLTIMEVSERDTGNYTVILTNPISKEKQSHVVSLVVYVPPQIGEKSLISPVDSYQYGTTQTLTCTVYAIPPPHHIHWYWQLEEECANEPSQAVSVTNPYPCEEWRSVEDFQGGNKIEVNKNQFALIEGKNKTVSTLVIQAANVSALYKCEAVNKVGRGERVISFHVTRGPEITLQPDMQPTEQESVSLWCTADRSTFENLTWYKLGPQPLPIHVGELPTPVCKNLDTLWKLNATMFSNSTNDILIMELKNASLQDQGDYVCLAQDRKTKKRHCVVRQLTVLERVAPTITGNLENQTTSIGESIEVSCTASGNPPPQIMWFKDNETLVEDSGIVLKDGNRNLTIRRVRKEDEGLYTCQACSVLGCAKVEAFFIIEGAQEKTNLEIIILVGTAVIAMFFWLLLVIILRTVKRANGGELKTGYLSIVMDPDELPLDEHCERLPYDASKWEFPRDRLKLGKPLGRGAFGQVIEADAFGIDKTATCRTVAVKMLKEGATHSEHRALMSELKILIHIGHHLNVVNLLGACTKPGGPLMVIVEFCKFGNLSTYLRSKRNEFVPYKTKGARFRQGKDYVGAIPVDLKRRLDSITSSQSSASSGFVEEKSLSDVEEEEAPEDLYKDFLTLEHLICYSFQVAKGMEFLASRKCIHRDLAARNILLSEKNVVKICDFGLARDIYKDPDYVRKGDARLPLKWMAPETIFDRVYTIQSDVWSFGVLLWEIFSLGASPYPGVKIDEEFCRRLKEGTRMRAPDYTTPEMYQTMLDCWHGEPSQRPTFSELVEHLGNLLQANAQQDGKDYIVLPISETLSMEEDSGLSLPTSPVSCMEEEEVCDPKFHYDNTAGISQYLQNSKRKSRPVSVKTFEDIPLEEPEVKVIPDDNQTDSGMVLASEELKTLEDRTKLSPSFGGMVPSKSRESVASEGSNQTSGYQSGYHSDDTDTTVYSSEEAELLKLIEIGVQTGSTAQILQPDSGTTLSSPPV
Sequence of Activin receptor type-1-like (Homo sapiens) (P37023 whole entry): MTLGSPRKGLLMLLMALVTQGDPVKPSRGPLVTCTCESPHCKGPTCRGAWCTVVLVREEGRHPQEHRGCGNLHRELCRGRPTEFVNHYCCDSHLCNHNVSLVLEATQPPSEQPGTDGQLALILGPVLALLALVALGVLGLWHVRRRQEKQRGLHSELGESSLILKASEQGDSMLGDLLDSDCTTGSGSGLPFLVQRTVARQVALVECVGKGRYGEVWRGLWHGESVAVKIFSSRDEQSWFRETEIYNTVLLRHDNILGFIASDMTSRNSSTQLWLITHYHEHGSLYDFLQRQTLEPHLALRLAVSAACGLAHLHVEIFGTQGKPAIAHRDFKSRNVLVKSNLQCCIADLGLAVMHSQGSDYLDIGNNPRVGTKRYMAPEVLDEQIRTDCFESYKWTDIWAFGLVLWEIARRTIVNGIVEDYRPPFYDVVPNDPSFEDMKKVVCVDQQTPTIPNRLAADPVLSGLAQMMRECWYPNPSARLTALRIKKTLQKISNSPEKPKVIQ

| SMILES | IC50 (LoVo; lovo) [µM] | IC50 (A549; a549) [µM] | IC50 (HepG2; hepg2) [µM] | IC50 (HeLa [6]; hela) [µM] | also measured |
| --- | --- | --- | --- | --- | --- |
| CCCCOC(=O)Cc1cc(Nc2nc(Nc3ccc(C(=O)NC4CC(C)(C)N([O])C(C)(C)C4)cc3)ncc2F)n[nH]1 | – | – | – | – | inhibition [1]: Dose-dependent effect; inhibition (Aurora kinase B [2]): Dose-dependent effect; IC50 (LoVo; Homo sapiens, LoVo, 48 h): 11.4 µM; IC50 (Aurora kinase B [3]): 0.0028 µM; inhibition (Aurora kinase B [4]): Dose-dependent effect; IC50 (A549; Homo sapiens, A549, 48 h): 0.89 µM; inhibition (Aurora kinase B [5]): 90.5%; IC50 (Aurora kinase A): 0.0093 µM; IC50 (HepG2; Homo sapiens, HepG2, 48 h): 5.73 µM; IC50 (HeLa [6]; Homo sapiens, HeLa, 48 h): 2.72 µM; inhibition [7]: 84.5%; inhibition [8]: Dose-dependent effect; inhibition [9]: Dose-dependent effect; inhibition [10]: 35.5%; inhibition [11]: 33.5%; inhibition [12]: Dose-dependent effect; inhibition (Homo sapiens): 7%; Activity (HeLa [13]): Active; inhibition [14]: 0% |
| Cc1cc(Nc2nc(Nc3ccc(C(=O)NC4CC(C)(C)N([O])C(C)(C)C4)cc3)ncc2F)no1 | – | – | – | – | IC50 (LoVo; Homo sapiens, LoVo, 48 h): 12 µM; IC50 (Aurora kinase B [3]): 0.0173 µM; IC50 (A549; Homo sapiens, A549, 48 h): 0.88 µM; inhibition (Aurora kinase B [5]): 76.5%; IC50 (Aurora kinase A): 0.0201 µM; IC50 (HepG2; Homo sapiens, HepG2, 48 h): 10.8 µM; IC50 (HeLa [6]; Homo sapiens, HeLa, 48 h): 5.68 µM; inhibition [7]: 69%; inhibition [10]: 57%; inhibition [11]: 39%; inhibition (Homo sapiens): 18%; inhibition [14]: 0% |
| CCCCOC(=O)Cc1csc(Nc2nc(Nc3ccc(C(=O)NC4CC(C)(C)N([O])C(C)(C)C4)cc3)ncc2F)n1 | 21.9 | 2.31 | 11.5 | 5.23 | – |
| Cc1cc(Nc2nc(Nc3ccc(C(=O)NC4CC(C)(C)N([O])C(C)(C)C4)cc3)ncc2F)n[nH]1 | 42.2 | 2.12 | 10.8 | 11.2 | – |
| CC1(C)CC(NC(=O)c2ccc(Nc3ncc(F)c(NCCCNc4ccc([N+](=O)[O-])cc4)n3)cc2)CC(C)(C)N1[O] | 53.6 | 12.4 | 19.8 | 31.7 | – |
| CCOC(=O)Cc1csc(Nc2nc(Nc3ccc(C(=O)NC4CC(C)(C)N([O])C(C)(C)C4)cc3)ncc2[N+](=O)[O-])n1 | 27 | 1.04 | 26.4 | 12 | – |
| CC(C)OC(=O)Cc1csc(Nc2nc(Nc3ccc(C(=O)NC4CC(C)(C)N([O])C(C)(C)C4)cc3)ncc2F)n1 | 11.9 | 3.42 | 13.4 | 11.2 | – |
| CCOC(=O)c1csc(Nc2nc(Nc3ccc(C(=O)NC4CC(C)(C)N([O])C(C)(C)C4)cc3)ncc2[N+](=O)[O-])n1 | 12.5 | 0.74 | 6.87 | 3.79 | – |
| Cc1cc(Nc2nc(Nc3ccc(C(=O)NC4CC(C)(C)N([O])C(C)(C)C4)cc3)ncc2[N+](=O)[O-])n[nH]1 | > 100 | 15.3 | 37.5 | 29.1 | – |
| Cc1cc(Nc2nc(Nc3ccc(C(=O)NC4CC(C)(C)N([O])C(C)(C)C4)cc3)ncc2[N+](=O)[O-])no1 | 26.8 | 1.14 | 7.36 | 7.36 | – |
| CCN1CCN(c2nc(Nc3ccc(C(=O)NC4CC(C)(C)N([O])C(C)(C)C4)cc3)ncc2[N+](=O)[O-])CC1 | 39.7 | 1.96 | 56.8 | 17.5 | – |
| CC1(C)CC(NC(=O)c2ccc(Nc3ncc([N+](=O)[O-])c(NC4CCCC4)n3)cc2)CC(C)(C)N1[O] | 41.2 | 33.2 | 28.7 | 55.6 | – |
| Cc1cc(Nc2cc(N3CCN(C)CC3)nc(Sc3ccc(NC(=O)C4CC4)cc3)n2)n[nH]1 [TOZASERTIB] | – | – | – | – | IC50 (LoVo; Homo sapiens, LoVo, 48 h): 45.3 µM; IC50 (A549; Homo sapiens, A549, 48 h): 35.8 µM; IC50 (HepG2; Homo sapiens, HepG2, 48 h): 53.3 µM; IC50 (HeLa [6]; Homo sapiens, HeLa, 48 h): 46.2 µM |
| CC1(C)CC(NC(=O)c2ccc(Nc3ncc(F)c(N4CCOCC4)n3)cc2)CC(C)(C)N1[O] | 35.5 | 13.2 | 22.6 | 14.3 | – |
| CC1(C)CC(NC(=O)c2ccc(Nc3ncc([N+](=O)[O-])c(N4CCN(c5ccc(F)cc5)CC4)n3)cc2)CC(C)(C)N1[O] | 27.8 | 10.2 | 13.1 | 25.3 | – |
